This assay deals with T1, recombinant human LXRβ-LBD-GST (Homo sapiens, UniProt P55055).
T1 construct: The LBD of LXRα or LXRβ was amplified by PCR and sub-cloned into the prokaryotic expression vector pGEX-4T-1; made in house; host or cells: E. coli
T1 sequence (P55055 222-460 limits assumed): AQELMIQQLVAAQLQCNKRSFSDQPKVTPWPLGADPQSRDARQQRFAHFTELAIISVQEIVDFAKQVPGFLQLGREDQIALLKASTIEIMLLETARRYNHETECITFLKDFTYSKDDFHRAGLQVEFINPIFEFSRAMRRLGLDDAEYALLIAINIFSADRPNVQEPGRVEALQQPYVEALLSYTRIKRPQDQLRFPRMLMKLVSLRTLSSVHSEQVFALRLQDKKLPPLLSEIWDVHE
The assay can be described thus: Radioligand competition binding scintillation proximity assay (SpA), LXRβ. To be noted: read-out: LXRβ pKi (converted). The source says: Radioligand Competition Binding Scintillation Proximity Assay (SpA) Using Recombinant Human LXRα or LXRβ Protein
These assays utilise the purified ligand binding domain (LBD) of Liver X Receptor alpha (LXRα) or Liver X Receptor beta (LXRβ) fused to […] (GST) tagged protein (LXRα-LBD-GST and LXRβ-LBD-GST respectively) and scintillation proximity assay (SpA) technology to determine binding affinities (pKi) of compounds at the ligand binding domain (LBD) of the human nuclear hormone receptor LXRα or LXRβ.
Preparation of Recombinant Human LXRα and LXRβ
Human LXRα and LXRβ were expressed as GST-fusion proteins in E. coli.
The LBD of LXRα or LXRβ was amplified by PCR and sub-cloned into the prokaryotic expression vector pGEX-4T-1 (GE Healthcare). […] E. coli, containing either the LXRα or LXRβ pGEX-4T-1 plasmid, were propagated, induced, and harvested by centrifugation. The bacterial pellets were resuspended in lysis buffer containing 50 mM tris(Hydroxymethyl)aminomethane (TRIS)-pH 8.0, 100 mM Sodium Chloride (NaCl), 1 mM ethylenediaminetetraacetic acid (EDTA) and one tablet of Proteinase inhibitor cocktail complete/EDTA free (Roche) (per 50 mL of buffer). The mixtures were sonicated on ice with a Branson sonifier. The suspensions were centrifuged and dithiothreitol (DTT) added to the supernatants to obtain a final concentration of 25 mM. […] Proteins were stored in 20 mM N2-hydroxyethylpiperazine-N′-2-ethanesulfonic acid (HEPES), 2 mM DTT with 10% glycerol at −80° C.
Binding to LXRα or LXRβ LBDs
For LXRα or LXRβ assays, an aliquot of recombinant human LXRα-LBD-GST or LXRβ-LBD-GST protein was diluted to 0.5 μg/mL and incubated in a final volume of 100 μL SpA buffer (10 mM potassium hydrogen phosphate anhydrous [K2HPO4], 10 mM potassium Phosphate Monobasic [KH2PO4], 2 mM EDTA pH 7.1, 50 mM NaCl, 1 mM DTT, 2 mM 3-[(3-cholamidopropyl)dimethylammonio]-1-propanesulfonate (CHAPS)) containing Protein-A coupled scintillant filled YtSi SpA beads (GE Healthcare), to a final concentration of 1 mg/mL and Goat anti-GST antibody (GE Healthcare) to a final concentration of 5 μg/mL. […] Test compounds were assayed over a concentration range. After incubation, the assay plates were read on a Packard TopCount.
On the technique in general: Loss of bound radioactivity is the signal in a displacement assay; it reports binding, not function.

In the case of `CC(C)(O)CNC(=O)Nc1ccc(CC2CCN(Cc3ccc(C(O)(C(F)(F)F)C(F)(F)F)cc3)CC2)cc1Cl` [Example 17, 1-(2-Chloro-4-((1-(4-(1,1,1,3,3,3-hexafluoro-2-hydroxypropan-2-yl)benzyl)piperidin-4-yl)methyl)phenyl)-3-(2-hydroxy-2-methylpropyl)urea], the Ki is 6.03 nM.

The values are drawn from US9108939B2, “(1, 1, 1,3,3,3-hexafluoro-2 hydroxypropan-2-yl) phenyl derivative, pharmaceutical compositions thereof and their use for the treatment of atherosclerosis” (Merck Sharp & Dohme B.V., priority 2009, dated 2015).
